Converted amounts (≈) assume the structure as drawn. *1 amine or outer side, *2 acyl side, *3 side chain or, on linkers, in order; H or OH if unused. Where a SMILES comes first, the peptide text is derived from it. Bridges are numbered along the chain shown (N, C = ends). [ ]: non-standard residue; d: D form. The star is where a group is joined. ξ: configuration not given here. Phe(3,5-F2) = N[C@@H](Cc1cc(F)cc(F)c1)C(=O)O; NH(1-Me-indolin-5-yl) = CN1CCc2cc(N*)ccc21; Morpholine(3S-CO) = O=C(O)[C@@H]1COCCN1; Pro(4S-Me) = C[C@@H]1CN[C@H](C(=O)O)C1; NH(4-Cl-2-F-phenyl) = Fc1cc(Cl)ccc1N*; Pro(4R-Me) = C[C@H]1CN[C@H](C(=O)O)C1; NH(3,4-Me2-phenyl) = Cc1ccc(N*)cc1C; Hyp = O=C(O)[C@@H]1C[C@@H](O)CN1; NH(4-Me-phenyl) = Cc1ccc(N*)cc1; ξNMeThr = CNC(C(=O)O)[C@@H](C)O; aThr = C[C@H](O)[C@H](N)C(=O)O; NMeA = CN[C@@H](C)C(=O)O; CO = O=C([*:1])[*:2]

The text below walks through data of patent US10457707B2, “Substituted urea depsipeptide analogs as activators of the CLPP endopeptidase” (priority 2015, dated 2019).

The assay relates to Streptococcus pneumoniae, R6. The assay can be described thus: Minimal inhibitory concentration assay. To be noted: read-out: Minimal Inhibitory Concentrations S. pneumoniae R6. The class given is cell-based. Put shortly:
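Microbroth dilution with two-fold serial compound dilutions in broth, incubated aerobically overnight at 37° C. MIC taken as the lowest concentration preventing bacterial growth.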

For the compound `Cc1ccc(NC(=O)N[C@@H](Cc2cc(F)cc(F)c2)C(=O)N[C@@H]2C(=O)N3C[C@H](O)C[C@H]3C(=O)N(C)[C@@H](C)C(=O)N[C@@H](C)C(=O)N3C[C@@H](C)C[C@H]3C(=O)O[C@H]2C)cc1` [Compound 214, (S)-3-(3,5-difluorophenyl)-N-((2S,6S,9S,11aS,13R,17S,18S,20aS)-13-hydroxy-2,6,9,10,18-pentamethyl-5,8,11,16,20-pentaoxohexadecahydro-1H,5H,16H-dipyrrolo[2,1-c:2′,1′-l][1]oxa[4,7,10,13]tetraazacyclohexadecin-17-yl)-2-(3-(p-tolyl)ureido)propanamide] ({NH(4-Me-phenyl)-CO}-[Phe(3,5-F2)][aThr][Hyp][NMeA]A[Pro(4S-Me)]; ester 2-C), the MIC worked out at 0.195 µM (≈ 0.156 µg/mL). Take `Cc1ccc(NC(=O)N[C@@H](Cc2cc(F)cc(F)c2)C(=O)N[C@@H]2C(=O)N3C[C@H](O)C[C@H]3C(=O)N3CCOC[C@H]3C(=O)N[C@@H](C)C(=O)N3C[C@H](C)C[C@H]3C(=O)O[C@H]2C)cc1C` [Compound 215, (S)-3-(3,5-difluorophenyl)-2-(3-(3,4-dimethylphenyl)ureido)-N-((6aS,8R,12S,13S,15aS,17R,21S,23aS)-8-hydroxy-13,17,21-trimethyl-6,11,15,20,23-pentaoxooctadecahydro-6H,11H,15H-[1,4]oxazino[3,4-i]dipyrrolo[2,1-c:2′,1′-l][1]oxa[4,7,10,13]tetraazacyclohexadecin-12-yl)propanamide] ({NH(3,4-Me2-phenyl)-CO}-[Phe(3,5-F2)][aThr][Hyp][Morpholine(3S-CO)]A[Pro(4R-Me)]; ester 2-C): the MIC was under 0.2 µM. In the case of `C[C@@H]1C[C@H]2C(=O)O[C@@H](C)[C@H](NC(=O)[C@H](Cc3cc(F)cc(F)c3)NC(=O)Nc3ccc4c(c3)CCN4C)C(=O)N3CCC[C@H]3C(=O)N(C)C([C@@H](C)O)C(=O)N[C@@H](C)C(=O)N2C1` (stereo partly drawn) [Compound 311, (S)-3-(3,5-difluorophenyl)-N-((2R,6S,9R,11aS,17S,18S,20aS)-9-((R)-1-hydroxyethyl)-2,6,10,18-tetramethyl-5,8,11,16,20-pentaoxohexadecahydro-1H,5H,16H-dipyrrolo[2,1-c:2′,1′-l][1]oxa[4,7,10,13]tetraazacyclohexadecin-17-yl)-2-(3-(1-methylindolin-5-yl)ureido)propanamide] ({NH(1-Me-indolin-5-yl)-CO}-[Phe(3,5-F2)][aThr]P[ξNMeThr]A[Pro(4R-Me)]; ester 2-C) it was 0.078 µM (≈ 0.0665 µg/mL); in that of `C[C@@H]1C[C@H]2C(=O)O[C@@H](C)[C@H](NC(=O)[C@H](Cc3cc(F)cc(F)c3)NC(=O)Nc3ccc4c(c3)CCN4C)C(=O)N3CCC[C@H]3C(=O)N3CCOC[C@H]3C(=O)N[C@@H](C)C(=O)N2C1` [Compound 312, (S)-3-(3,5-difluorophenyl)-2-(3-(1-methylindolin-5-yl)ureido)-N-((6aS,12S,13S,15aS,17R,21S,23aS)-13,17,21-trimethyl-6,11,15,20,23-pentaoxooctadecahydro-6H,11H,15H-[1,4]oxazino[3,4-i]dipyrrolo[2,1-c:2′,1′-l][1]oxa[4,7,10,13]tetraazacyclo-hexadecin-12-yl)propanamide] ({NH(1-Me-indolin-5-yl)-CO}-[Phe(3,5-F2)][aThr]P[Morpholine(3S-CO)]A[Pro(4R-Me)]; ester 2-C), 0.078 µM (≈ 0.0664 µg/mL); in that of `C[C@@H]1C[C@H]2C(=O)O[C@@H](C)[C@H](NC(=O)[C@H](Cc3cc(F)cc(F)c3)NC(=O)Nc3ccc(Cl)cc3F)C(=O)N3CCC[C@H]3C(=O)N(C)C([C@@H](C)O)C(=O)N[C@@H](C)C(=O)N2C1` (stereo partly drawn) [Compound 313, (S)-2-(3-(4-chloro-2-fluorophenyl)ureido)-3-(3,5-difluorophenyl)-N-((2R,6S,9R,11aS,17S,18S,20aS)-9-((R)-1-hydroxyethyl)-2,6,10,18-tetramethyl-5,8,11,16,20-pentaoxohexadecahydro-1H,5H,16H-dipyrrolo[2,1-c:2′,1′-l][1]oxa[4,7,10,13]tetraazacyclohexadecin-17-yl)propanamide] ({NH(4-Cl-2-F-phenyl)-CO}-[Phe(3,5-F2)][aThr]P[ξNMeThr]A[Pro(4R-Me)]; ester 2-C), under 0.02 µM. In the case of `C[C@@H]1C[C@H]2C(=O)O[C@@H](C)[C@H](NC(=O)[C@H](Cc3cc(F)cc(F)c3)NC(=O)Nc3ccc(Cl)cc3F)C(=O)N3CCC[C@H]3C(=O)N3CCOC[C@H]3C(=O)N[C@@H](C)C(=O)N2C1` [Compound 314, (S)-2-(3-(4-chloro-2-fluorophenyl)ureido)-3-(3,5-difluorophenyl)-N-((6aS,12S,13S,15aS,17R,21S,23aS)-13,17,21-trimethyl-6,11,15,20,23-pentaoxooctadecahydro-6H,11H,15H-[1,4]oxazino[3,4-i]dipyrrolo[2,1-c:2′,1′-l][1]oxa[4,7,10,13]tetraazacyclo-hexadecin-12-yl)propanamide] ({NH(4-Cl-2-F-phenyl)-CO}-[Phe(3,5-F2)][aThr]P[Morpholine(3S-CO)]A[Pro(4R-Me)]; ester 2-C) it was under 0.02 µM; in that of `C[C@@H]1C[C@H]2C(=O)O[C@@H](C)[C@H](NC(=O)[C@H](Cc3cc(F)cc(F)c3)NC(=O)Nc3ccc4c(c3)CCN4C)C(=O)N3C[C@H](O)C[C@H]3C(=O)N3CCOC[C@H]3C(=O)N[C@@H](C)C(=O)N2C1` [Compound 315, (S)-3-(3,5-difluorophenyl)-N-((6aS,8R,12S,13S,15aS,17R,21S,23aS)-8-hydroxy-13,17,21-trimethyl-6,11,15,20,23-pentaoxooctadecahydro-6H,11H,15H-[1,4]oxazino[3,4-i]dipyrrolo[2,1-c:2′,1′-l][1]oxa[4,7,10,13]tetraazacyclohexadecin-12-yl)-2-(3-(1-methylindolin-5-yl)ureido)propanamide] ({NH(1-Me-indolin-5-yl)-CO}-[Phe(3,5-F2)][aThr][Hyp][Morpholine(3S-CO)]A[Pro(4R-Me)]; ester 2-C), 0.313 µM (≈ 0.271 µg/mL).

On to `C[C@@H]1C[C@H]2C(=O)O[C@@H](C)[C@H](NC(=O)[C@H](Cc3cc(F)cc(F)c3)NC(=O)Nc3ccc(Cl)cc3F)C(=O)N3C[C@H](O)C[C@H]3C(=O)N3CCOC[C@H]3C(=O)N[C@@H](C)C(=O)N2C1` [Compound 316, (S)-2-(3-(4-chloro-2-fluorophenyl)ureido)-3-(3,5-difluorophenyl)-N-((6aS,8R,12S,13S,15aS,17R,21S,23aS)-8-hydroxy-13,17,21-trimethyl-6,11,15,20,23-pentaoxooctadecahydro-6H,11H,15H-[1,4]oxazino[3,4-i]dipyrrolo[2,1-c:2′,1′-l][1]oxa[4,7,10,13]tetraazacyclo-hexadecin-12-yl)propanamide] ({NH(4-Cl-2-F-phenyl)-CO}-[Phe(3,5-F2)][aThr][Hyp][Morpholine(3S-CO)]A[Pro(4R-Me)]; ester 2-C), for which the MIC was under 0.02 µM. `Cc1ccc(NC(=O)N[C@@H](Cc2cc(F)cc(F)c2)C(=O)N[C@H]2COC(=O)[C@@H]3C[C@@H](C)CN3C(=O)[C@H](C)NC(=O)C([C@@H](C)O)N(C)C(=O)[C@@H]3CCCN3C2=O)cc1` (stereo partly drawn) [Compound 322, (S)-3-(3,5-difluorophenyl)-N-((2R,6S,9R,11aS,17S,20aS)-9-((R)-1-hydroxyethyl)-2,6,10-trimethyl-5,8,11,16,20-pentaoxohexadecahydro-1H,5H,16H-dipyrrolo[2,1-c:2′,1′-l][1]oxa[4,7,10,13]tetraazacyclohexadecin-17-yl)-2-(3-(p-tolyl)ureido)propanamide] ({NH(4-Me-phenyl)-CO}-[Phe(3,5-F2)]SP[ξNMeThr]A[Pro(4R-Me)]; ester 2-C): the MIC amounted to 0.156 µM (≈ 0.124 µg/mL).
